In patent publication US20180344680A1, “COMPOSITIONS AND METHODS FOR TREATMENT, AMELIORATION, AND PREVENTION OF DIABETES-RELATED SKIN ULCERS” (THE ARIZONA BOARD OF REGENTS ON BEHALF OF THE UNIVERSITY OF …, priority 2015, published 2018):

Assays:
NRF2 pathway = test: Immunoblot of NRF2 pathway in HaCaT cells under high glucose; assay type: cell-based, human; conditions: HaCaT in high glucose (HG); 5 μmol/L SF or 20 μmol/L CA; 48 h
Protocol: Human immortalized keratinocytes HaCaT were obtained from the Arizona Cancer Center (see, e.g., Boukamp P, et al., J Cell Biol 106:761-771, 1988). Cells were grown in Dulbecco's modified Eagle's medium (DMEM) containing low glucose (LG, 5.5 mmol/L) and 10% fetal bovine serum (FBS) in an incubator at 37° C. with 5% CO2. For the experiments, the cells were starved in serum-free LG DMEM for 24 h, then either maintained in LG DMEM or switched to high glucose (HG, 25 mmol/L) DMEM for 2 days (see, e.g., Zheng H, et al., Diabetes 60:3055-3066, 2011; Lan C C, et al., Br J Dermatol 159:1103-1115, 2008). For the treatments, the cells were dosed with 5 μmol/L SF or 20 μmol/L CA.
siRNA transfections. HaCaT cells were transfected with either a non-specific, control small interfering RNA (Con-siRNA, #1027281, Qiagen, Valencia, Calif.) or an NRF2-specific siRNA (#S100657937) using the HiPerfect transfection reagent (Qiagen) according to the manufacturer's instructions. Briefly, cells were maintained in LG or HG DMEM for 2 days and then transfected with either control or NRF2 siRNA for migration, proliferation, and apoptosis experiments. For the ROS detection, cells were maintained in LG DMEM and transfected with either control or NRF2 siRNA; 24 h later, the cells were switched to HG DMEM and treated as indicated.
Cultured HaCaT cells were harvested in 1× sample buffer (50 mM Tris-HCl pH 6.8, 2% sodium dodecyl sulfate (SDS), 10% glycerol, 100 mM dithiothreitol (DTT), 0.1% bromophenol blue), boiled and sonicated. Total cell lysates were resolved by SDS-PAGE and subjected to immunoblot analyses with the indicated antibodies. For the detection of the secreted proteins TGF-β1 and MMP9, cells were incubated 24 h in serum-free media before harvesting the medium. TGF-β1 was measured using the Quantikine human TGF-β1 immunoassay kit (R&D systems; Minneapolis, Minn.) according to the manufacturer's instructions. The absorbance at 450 nm was measured using a Synergy 2 microplate reader (BioTek, Winooski, Vt.) and the amount of TGF-β1 was calculated by standard curve. MMP9 activity was evaluated by gelatin zymography as described elsewhere (see, e.g., Toth M, et al., Methods Mol Biol 878:121-135, 2012; Zhu P, et al., Exp Dermatol 21:123-129, 2012). Briefly, the supernatant was concentrated using Amicon Ultra-0.5 mL centrifugal filters (Merck Milipore, Darmstadt, Germany) (10 kDa cut off), mixed with non-reducing sample buffer and subjected to electrophoresis in 10% polyacrylamide-0.1% w/v gelatin gels. The gels were then washed in 2.5% Triton X-100 to remove SDS and incubated with developing buffer (50 mM Tris-HCl, pH 7.6, 1 μM ZnCl2 and 5 mM CaCl2) at 37° C. for 36 h. Gels were subsequently stained with 0.2% Coomassie blue and were analyzed with ImageJ.

HaCaT cells = test: ROS measurement (DCF/flow cytometry) in HaCaT cells; assay type: cell-based, human; conditions: HG HaCaT cells; 5 μmol/L SF or 20 μmol/L CA every 24 h, 48 h
Protocol: Human immortalized keratinocytes HaCaT were obtained from the Arizona Cancer Center (see, […], et al., J Cell Biol 106:761-771, 1988). Cells were grown in Dulbecco's modified Eagle's medium (DMEM) containing low glucose (LG, 5.5 mmol/L) and 10% fetal bovine serum (FBS) in an incubator at 37° C. with 5% CO2. For the experiments, the cells were starved in serum-free LG DMEM for 24 h, then either maintained in LG DMEM or switched to high glucose (HG, 25 mmol/L) DMEM for 2 days (see, e.g., Zheng H, et al., Diabetes 60:3055-3066, 2011; Lan C C, et al., Br J Dermatol 159:1103-1115, 2008). For the treatments, the cells were dosed with 5 μmol/L SF or 20 μmol/L CA. siRNA transfections. […] ROS were measured in HaCaT cells using DCF. […] Then, 48 h later, the cells were switched into fresh medium containing 10 μg/mL DCF, incubated 30 min, and fluorescence intensity was measured by flow cytometry. The rate of cell proliferation was measured by two methods (see, […], et al., Proc Natl Acad Sci USA 108:1433-1438, 2011): 1) detection of Ki67 using indirect immunofluorescence as described previously (see, e.g., Lau A, et al., Mol Cell Biol 30:3275-3285, 2010); and 2) using the xCELLigence system (Roche). For this, 8000 HaCaT cells/well were seeded in LG or HG media, with or without an NRF2 activator, and cell growth was monitored for 72 h. […]

[1] = Digital infrared thermal imaging of wounds in STZ mice; assay type: in vivo, mouse; conditions: exaggerated gradient vs Con group
Protocol: Diabetes mouse model and treatments. […] Briefly, three weeks after STZ injections, fasting glucose levels (FGL, 4 h fast) were measured using the AlphaTRAK system (Abbott Laboratory, North Chicago, Ill.) and mice with a FGL higher than or equal to 250 mg/dL were considered diabetic and included in the study (see, e.g., FIG. 2A and FIG. 3A for a detailed timeline). The mice (n=5-8) were then allocated randomly to each of the indicated treatment groups and received corn oil (control), 12.5 mg/kg SF or 50 mg/kg CA intraperitoneally every two days until skin tissues were harvested. One week after the treatments, the mice were anesthetized, their backs were shaved and cleaned. Two wounds were made with a sterile 6 mm skin biopsy punch (Health link, Jacksonville, Fla.) and covered with 3M Tegaderm pads. The wounds were photographed using an in vivo imaging system and an infrared integrated system (IRISYS, Northampton, UK) for 14 days. Gross wound closure was quantified by ImageJ software, and wound healing was expressed as the percentage of the original wound area that had healed. The tissues were collected using an 8 mm skin biopsy punch; one half was fixed in 10% buffered formalin and embedded in paraffin while the other half was used for protein extraction. […]

| Structure (SMILES) | protein levels of HO-1, AKR1C1, and NQO1 (NRF2 pathway) | protein levels of NRF2 (NRF2 pathway) | ROS levels (HaCaT cells) | temperature gradients (ΔT) between wound area and surrounding healthy tissue [1] |
| --- | --- | --- | --- | --- |
| O=CC=Cc1ccccc1 [CA, Cinnamaldehyde] | further induced | further NRF2 induction | reduced ROS levels significantly | abolished this effect |
| C[S@@+]([O-])CCCCN=C=S [SF, L-sulforaphane] | further induced | further NRF2 induction | reduced ROS levels significantly | abolished this effect |
